The conditions of data set [1]: Crystal; DTA.
The nature of data set [2]: Molar enthalpy of transition or fusion. As to conditions: Crystal; DSC.

These results are taken from the NIST ThermoML archive (doi:10.1021/acs.jced.6b00957).

Molecules are shown by their SMILES. ± gives the expanded uncertainty stated by the source.

As to `O=C(O)c1c(O)cccc1O` [2,6-dihydroxybenzoic acid], the Normal melting temperature in data set [1] worked out at 167.1 ± 4 °C. Moreover, the “Molar enthalpy of transition or fusion” value in data set [2] came to 6.05 ± 0.382 kcal/mol.
